Laboratory results published in patent US6544991B2, “Compositions and methods for treating bacterial infections” (priority 2000, dated 2003).
Where two headings read alike, the source gives them in different places.

What was measured:
MRSA strains = test: MIC by agar dilution or microbroth dilution method (NCCLS); format: cell-based, Staph. aureus; design: MIC50: unit not given beside the values; conditions: for MIC: Staphylococcus aureus
In short: (§1)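 MICs determined by NCCLS agar dilution or microbroth dilution on clinical isolates, with Staph. aureus 29213 as quality control strain. Synergy by agar dilution checkerboard; FIC computed as MIC of drug in combination divided by MIC alone, summed into FIC index.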

VRSA strains = test: MIC by agar dilution or microbroth dilution method (NCCLS), VRSA strains; format: cell-based, Staph. aureus; conditions: VRSA strains (n = 10); for MIC: Staphylococcus aureus
In short: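 Clinical isolates from human infections, including VRSA strains from five countries, with S. aureus 29213 as QC strain. MICs by NCCLS agar dilution or microbroth dilution; combination synergy by agar dilution checkerboard, expressed as FIC index from MIC in combination over MIC alone.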

Staph. aureus 29213 = test: MIC, quality control strain; format: cell-based; conditions: for MIC: Staphylococcus aureus, read-out: MIC Values
In short: as §1

In the case of `CC(=O)NC[C@H]1CN(c2ccc(N3CCOCC3)c(F)c2)C(=O)O1` [LZD, (S)-N-[[3-[3-fluoro-4-(4-morpholinyl)phenyl]-2-oxo-5-oxazolidinyl]methyl]acetamide], the MIC50 (MRSA strains; 48 MRSA strains tested, including ten VRSA strains) is reported as 2, the “MICs Range” value (MRSA strains; MRSA strains (n = 38)) is reported as 0.5 to 2 mg/L and the MIC (MRSA strains; MRSA / NCTC 10442, strain NCTC 10442, read-out: MIC Values) is reported as 2 µg/mL. For the same molecule, the MIC (MRSA strains; MRSA, MRSA strains (n = 38), read-out: MICs 50%) was 2 µg/mL, the MIC (MRSA strains; MRSA, MRSA strains (n = 38), read-out: MICs 90%) was 2 µg/mL and the MIC (MRSA strains; MRSA, strain 85/2082, read-out: MIC Values) was 2 µg/mL. It also gave an MIC (MRSA strains; MRSA, strain 99.3700W, read-out: MIC Values) of 2 µg/mL, an MIC (MRSA strains; MRSA, strain 99.3759V, read-out: MIC Values) of 2 µg/mL and an MIC (MRSA strains; MRSA, strain AMC 11094, read-out: MIC Values) of 2 µg/mL. For the same molecule, the MIC (MRSA strains; MRSA, strain BM12612(new), read-out: MIC Values) was 2 µg/mL, the MIC (MRSA strains; MRSA, strain H1, read-out: MIC Values) was 2 µg/mL and the MIC (MRSA strains; MRSA, strain HIP 5827, read-out: MIC Values) was 2 µg/mL. It also gave an MIC (MRSA strains; MRSA, strain HIP 5836, read-out: MIC Values) of 2 µg/mL, an MIC (MRSA strains; MRSA, strain HIP 6297, read-out: MIC Values) of 2 µg/mL and an MIC (MRSA strains; MRSA, strain HIP 7737, read-out: MIC Values) of 2 µg/mL. For the same molecule, the MIC (MRSA strains; MRSA, strain JSCC 340, read-out: MIC Values) was 2 µg/mL, the MIC (MRSA strains; MRSA, strain JSCC 351, read-out: MIC Values) was 2 µg/mL and the MIC (MRSA strains; MRSA, strain JSCC 363, read-out: MIC Values) was 2 µg/mL. It also gave an MIC (MRSA strains; MRSA, strain JSCC 381, read-out: MIC Values) of 2 µg/mL, an MIC (MRSA strains; MRSA, strain JSCC 390, read-out: MIC Values) of 2 µg/mL and an MIC (MRSA strains; MRSA, strain JSCC 401, read-out: MIC Values) of 2 µg/mL. The MIC (MRSA strains; MRSA, strain JSCC 413, read-out: MIC Values) was 2 µg/mL, the MIC (MRSA strains; MRSA, strain JSCC 431, read-out: MIC Values) was 2 µg/mL and the MIC (MRSA strains; MRSA, strain JSCC 440, read-out: MIC Values) was 2 µg/mL. The MIC (MRSA strains; MRSA, strain JSCC 451, read-out: MIC Values) was 2 µg/mL, the MIC (MRSA strains; MRSA, strain JSCC 463, read-out: MIC Values) was 2 µg/mL and the MIC (MRSA strains; MRSA, strain JSCC 481, read-out: MIC Values) was 2 µg/mL. For the same molecule, the MIC (MRSA strains; MRSA, strain JSCC 490, read-out: MIC Values) was 2 µg/mL, the MIC (MRSA strains; MRSA, strain JSCC 501, read-out: MIC Values) was 2 µg/mL and the MIC (MRSA strains; MRSA, strain JSCC 513, read-out: MIC Values) was 1 µg/mL. The MIC (MRSA strains; MRSA, strain JSCC 531, read-out: MIC Values) was 1 µg/mL, the MIC (MRSA strains; MRSA, strain JSCC 540, read-out: MIC Values) was 1 µg/mL and the MIC (MRSA strains; MRSA, strain JSCC 551, read-out: MIC Values) was 2 µg/mL. For the same molecule, the MIC (MRSA strains; MRSA, strain JSCC 563, read-out: MIC Values) was 1 µg/mL, the MIC (MRSA strains; MRSA, strain JSCC 581 (lacks the mecA gene), read-out: MIC Values) was 2 µg/mL and the MIC (MRSA strains; MRSA, strain JSCC 590 (lacks the mecA gene), read-out: MIC Values) was 2 µg/mL. For the same molecule, the MIC (MRSA strains; MRSA, strain JSCC 601, read-out: MIC Values) was 1 µg/mL, the MIC (MRSA strains; MRSA, strain JSCC 640, read-out: MIC Values) was 1 µg/mL and the MIC (MRSA strains; MRSA, strain JSCC 651, read-out: MIC Values) was 2 µg/mL. For the same molecule, the MIC (MRSA strains; MRSA, strain JSCC 663, read-out: MIC Values) was 2 µg/mL, the MIC (MRSA strains; MRSA, strain JSCC 681, read-out: MIC Values) was 0.5 µg/mL and the MIC (MRSA strains; MRSA, strain JSCC 690, read-out: MIC Values) was 1 µg/mL. It also gave an MIC (MRSA strains; MRSA, strain JSCC 701, read-out: MIC Values) of 1 µg/mL, an MIC (MRSA strains; MRSA, strain JSCC 713, read-out: MIC Values) of 2 µg/mL and an MIC (MRSA strains; MRSA, strain JSCC 731, read-out: MIC Values) of 1 µg/mL. For the same molecule, the MIC (MRSA strains; MRSA, strain JSCC 740, read-out: MIC Values) was 2 µg/mL, the MIC (MRSA strains; MRSA, strain JSCC 751, read-out: MIC Values) was 2 µg/mL and the MIC (MRSA strains; MRSA, strain JSCC 763, read-out: MIC Values) was 2 µg/mL. It also gave an MIC (MRSA strains; MRSA, strain JSCC 781, read-out: MIC Values) of 2 µg/mL, an MIC (MRSA strains; MRSA, strain JSCC 870, read-out: MIC Values) of 2 µg/mL and an MIC (MRSA strains; MRSA, strain LIM 2, read-out: MIC Values) of 1 µg/mL. For the same molecule, the MIC (MRSA strains; MRSA, strain Mu 3, read-out: MIC Values) was 2 µg/mL, the MIC (MRSA strains; MRSA, strain Mu 50, read-out: MIC Values) was 2 µg/mL and the “susceptibility (range of MICs)” value (MRSA strains; all tested MRSA isolates, including VRSA strains) was “susceptible range of MICs”. For the same molecule, the MIC (VRSA strains; read-out: MICs 50%) was 2 µg/mL, the MIC (VRSA strains; read-out: MICs 90%) was 2 µg/mL and the “MICs Range” value (VRSA strains) was 1 to 2 mg/L. The MIC (Staph. aureus 29213; ATCC29213, strain ATCC 29213, control sample (Ex. 26)) was 2 µg/mL and the MIC (Staph. aureus 29213; ATCC29213, strain ATCC29213, control sample (Ex. 37)) was 2 µg/mL.
`C[C@@H](O)[C@H]1C(=O)N2C(C(=O)O)=C(SCCN=CN)C[C@H]12` [IPM, imipenem] was tested, and the “MICs 50%” value (MRSA strains; MRSA strains (n = 38)) was 16 mg/L, the “MICs 90%” value (MRSA strains; MRSA strains (n = 38)) was 64 mg/L and the “MICs Range” value (MRSA strains; MRSA strains (n = 38)) was >0.125 to 128 mg/L. For the same molecule, the “MIC Values” (MRSA strains; strain 85/2082) was 2 µg/mL, the “MIC Values” (MRSA strains; strain 99.3700W) was 32 µg/mL and the “MIC Values” (MRSA strains; strain 99.3759V) was 64 µg/mL. For the same molecule, the “MIC Values” (MRSA strains; strain AMC 11094) was 32 µg/mL, the “MIC Values” (MRSA strains; strain BM12612(new)) was 128 µg/mL and the “MIC Values” (MRSA strains; strain H1) was 64 µg/mL. For the same molecule, the “MIC Values” (MRSA strains; strain HIP 5827) was 64 µg/mL, the “MIC Values” (MRSA strains; strain HIP 5836) was 8 µg/mL and the “MIC Values” (MRSA strains; strain HIP 6297) was 1 µg/mL. The “MIC Values” (MRSA strains; strain HIP 7737) was 32 µg/mL, the “MIC Values” (MRSA strains; strain JSCC 340) was 64 µg/mL and the “MIC Values” (MRSA strains; strain JSCC 351) was 32 µg/mL. For the same molecule, the “MIC Values” (MRSA strains; strain JSCC 363) was 32 µg/mL, the “MIC Values” (MRSA strains; strain JSCC 381) was 32 µg/mL and the “MIC Values” (MRSA strains; strain JSCC 390) was 32 µg/mL. For the same molecule, the “MIC Values” (MRSA strains; strain JSCC 401) was 64 µg/mL, the “MIC Values” (MRSA strains; strain JSCC 413) was 16 µg/mL and the “MIC Values” (MRSA strains; strain JSCC 431) was 1 µg/mL. For the same molecule, the “MIC Values” (MRSA strains; strain JSCC 440) was 16 µg/mL, the “MIC Values” (MRSA strains; strain JSCC 451) was 64 µg/mL and the “MIC Values” (MRSA strains; strain JSCC 463) was 64 µg/mL. For the same molecule, the “MIC Values” (MRSA strains; strain JSCC 481) was 64 µg/mL, the “MIC Values” (MRSA strains; strain JSCC 490) was 32 µg/mL and the “MIC Values” (MRSA strains; strain JSCC 501) was 32 µg/mL. The “MIC Values” (MRSA strains; strain JSCC 513) was 8 µg/mL, the “MIC Values” (MRSA strains; strain JSCC 531) was 32 µg/mL and the “MIC Values” (MRSA strains; strain JSCC 540) was 64 µg/mL. For the same molecule, the “MIC Values” (MRSA strains; strain JSCC 551) was 16 µg/mL, the “MIC Values” (MRSA strains; strain JSCC 563) was “≦0.125 mcg/mL” and the “MIC Values” (MRSA strains; strain JSCC 581 (lacks the mecA gene)) was “≦0.125 mcg/mL”. The “MIC Values” (MRSA strains; strain JSCC 590 (lacks the mecA gene)) was “≦0.125 mcg/mL”, the “MIC Values” (MRSA strains; strain JSCC 601) was 1 µg/mL and the “MIC Values” (MRSA strains; strain JSCC 640) was 32 µg/mL. For the same molecule, the “MIC Values” (MRSA strains; strain JSCC 651) was 32 µg/mL, the “MIC Values” (MRSA strains; strain JSCC 663) was 8 µg/mL and the “MIC Values” (MRSA strains; strain JSCC 681) was 8 µg/mL. For the same molecule, the “MIC Values” (MRSA strains; strain JSCC 690) was 16 µg/mL, the “MIC Values” (MRSA strains; strain JSCC 701) was 32 µg/mL and the “MIC Values” (MRSA strains; strain JSCC 713) was 32 µg/mL. The “MIC Values” (MRSA strains; strain JSCC 731) was 32 µg/mL, the “MIC Values” (MRSA strains; strain JSCC 740) was 16 µg/mL and the “MIC Values” (MRSA strains; strain JSCC 751) was 32 µg/mL. For the same molecule, the “MIC Values” (MRSA strains; strain JSCC 763) was 8 µg/mL, the “MIC Values” (MRSA strains; strain JSCC 781) was 32 µg/mL and the “MIC Values” (MRSA strains; strain JSCC 870) was 16 µg/mL. For the same molecule, the “MIC Values” (MRSA strains; strain LIM 2) was 8 µg/mL, the “MIC Values” (MRSA strains; strain Mu 3) was 128 µg/mL and the “MIC Values” (MRSA strains; strain Mu 50) was 64 µg/mL. For the same molecule, the “MIC Values” (MRSA strains; strain N315) was 1 µg/mL, the “MIC Values” (MRSA strains; strain NCTC 10442) was 64 µg/mL and the “MICs 50%” value (VRSA strains) was 32 mg/L. For the same molecule, the “MICs 90%” value (VRSA strains) was 64 mg/L, the “MICs Range” value (VRSA strains) was 1 to 128 mg/L and the “MIC Values” (Staph. aureus 29213; strain ATCC 29213, control sample (Ex. 26)) was “≦0.125 mcg/mL”. For the same molecule, the “MIC Values” (Staph. aureus 29213; strain ATCC29213, control sample (Ex. 37)) was “≦0.125 mcg/mL”.
